# Columns and labels:
# [1] = molecular target: Tau-tubulin kinase 2 (Homo sapiens) (UniProt Q6IQ55); experiment: Inhibition of human TTBK2 (1 to 450 residues) assessed as residual activity at 500 nM in presence of 33P-ATP by filter binding assay relative to control
# [2] = Inhibition of recombinant Cryptosporidium parvum FIKK using RRRAPSFYRK peptide as substrate by NADH coupled LDH-PK ATPase assay
# [3] = molecular target: Serine/threonine-protein kinase pim-1 (Homo sapiens) (UniProt P11309); experiment: Inhibition of human PIM1 (2 to 313 residues) assessed as residual activity at 500 nM in presence of 33P-ATP by filter binding assay relative to control
# [4] = molecular target: Serine/threonine-protein kinase Nek6 (Homo sapiens) (UniProt Q9HC98); experiment: Inhibition of human NEK6 (8 to 313 residues) assessed as residual activity at 500 nM in presence of 33P-ATP by filter binding assay relative to control
# [5] = molecular target: Serine/threonine-protein kinase 26 (Homo sapiens) (UniProt Q9P289); experiment: Inhibition of human MST4 (1 to 416 residues) assessed as residual activity at 500 nM in presence of 33P-ATP by filter binding assay relative to control
# [6] = molecular target: Inhibitor of nuclear factor kappa-B kinase subunit epsilon (Homo sapiens) (UniProt Q14164); experiment: Inhibition of human IKKepsilon (1 to 716 residues) assessed as residual activity at 500 nM in presence of 33P-ATP by filter binding assay relative to control
# [7] = molecular target: Mitogen-activated protein kinase 14 (Homo sapiens) (UniProt Q16539); experiment: Inhibition of human p38alpha (1 to 360 residues) at 500 nM in presence of 33P-ATP by filter binding assay relative to control
# [8] = molecular target: Ribosomal protein S6 kinase alpha-3 (Homo sapiens) (UniProt P51812); experiment: Inhibition of human RSK2 assessed as residual activity at 500 nM in presence of 33P-ATP by filter binding assay relative to control
# [9] = molecular target: Mitogen-activated protein kinase kinase kinase kinase 3 (Homo sapiens) (UniProt Q8IVH8); experiment: Inhibition of human MAP4K3 (1 to 873 residues) assessed as residual activity at 500 nM in presence of 33P-ATP by filter binding assay relative to control
# [10] = molecular target: CDK2/Cyclin A2 (Homo sapiens) (UniProt P24941+P20248); experiment: Inhibition of human CDK2 (2 to 298 residues)/cyclinA2 (171 to 432 residues) assessed as residual activity at 500 nM in presence of 33P-ATP by filter binding assay relative to control; assay type: protein-complex assay
# [11] = molecular target: Insulin-like growth factor 1 receptor (Homo sapiens) (UniProt P08069); experiment: Inhibition of human IGF1R (954 to 1367 residues) assessed as residual activity at 500 nM in presence of 33P-ATP by filter binding assay relative to control
# [12] = molecular target: Serine/threonine-protein kinase BRSK2 (Homo sapiens) (UniProt Q8IWQ3); experiment: Inhibition of human BRSK2 (2 to 674 residues) assessed as residual activity at 500 nM in presence of 33P-ATP by filter binding assay relative to control
# [13] = molecular target: Serine/threonine-protein kinase STK11 (Homo sapiens) (UniProt Q15831); experiment: Inhibition of human LKB1 (1 to 433 residues) assessed as residual activity at 500 nM in presence of 33P-ATP by filter binding assay relative to control
# [14] = molecular target: High affinity nerve growth factor receptor (Homo sapiens) (UniProt P04629); experiment: Inhibition of human TRKA (441 to 760 residues) assessed as residual activity at 500 nM in presence of 33P-ATP by filter binding assay relative to control
# [15] = molecular target: Mitogen-activated protein kinase 15 (Homo sapiens) (UniProt Q8TD08); experiment: Inhibition of human ERK8 (2 to 544 residues) assessed as residual activity at 500 nM in presence of 33P-ATP by filter binding assay relative to control
# [16] = molecular target: Mitogen-activated protein kinase 10 (Homo sapiens) (UniProt P53779); experiment: Inhibition of human JNK3 (40 to 422 residues) assessed as residual activity at 500 nM in presence of 33P-ATP by filter binding assay relative to control
# [17] = molecular target: Dual specificity mitogen-activated protein kinase kinase 1 (Homo sapiens) (UniProt Q02750); experiment: Inhibition of human MKK1 (2 to 393 residues) assessed as residual activity at 500 nM in presence of 33P-ATP by filter binding assay relative to control
# [18] = molecular target: cAMP-dependent protein kinase catalytic subunit alpha (Homo sapiens) (UniProt P17612); experiment: Inhibition of human PKAalpha (2 to 351 residues) assessed as residual activity at 500 nM in presence of 33P-ATP by filter binding assay relative to control
# [19] = molecular target: CDK9/cyclin T1 (Homo sapiens) (UniProt O60563+P50750); experiment: Inhibition of human CDK9 (1 to 372 residues)/cyclinT1 (1 to 726 residues) assessed as residual activity at 500 nM in presence of 33P-ATP by filter binding assay relative to control; assay type: protein-complex assay
# [20] = molecular target: Mitogen-activated protein kinase kinase kinase 1 (Homo sapiens) (UniProt Q13233); experiment: Inhibition of human MEKK1 (877 to 1563 residues) assessed as residual activity at 500 nM in presence of 33P-ATP by filter binding assay relative to control
# [21] = molecular target: Serine/threonine-protein kinase BRSK1 (Homo sapiens) (UniProt Q8TDC3); experiment: Inhibition of human BRSK1 (2 to 778 residues) assessed as residual activity at 500 nM in presence of 33P-ATP by filter binding assay relative to control
# [22] = Efflux ratio of permeability in human Caco2 cells; assay type: ADME, cell-based; conditions: Caco-2
# [23] = molecular target: Dual specificity mitogen-activated protein kinase kinase 6 (Homo sapiens) (UniProt P52564); experiment: Inhibition of human MKK6 (2 to 334 residues) assessed as residual activity at 500 nM in presence of 33P-ATP by filter binding assay relative to control
# [24] = molecular target: MAP/microtubule affinity-regulating kinase 3 (Homo sapiens) (UniProt P27448); experiment: Inhibition of human MARK3 (2 to 729 residues) assessed as residual activity at 500 nM in presence of 33P-ATP by filter binding assay relative to control
# [25] = molecular target: Eukaryotic translation initiation factor 2-alpha kinase 3 (Homo sapiens) (UniProt Q9NZJ5); experiment: Inhibition of human EIF2AK3 (536 to 1116 residues) assessed as residual activity at 500 nM in presence of 33P-ATP by filter binding assay relative to control
# [26] = molecular target: Eukaryotic elongation factor 2 kinase (Homo sapiens) (UniProt O00418); experiment: Inhibition of human EF2K (2 to 725 residues) assessed as residual activity at 500 nM in presence of 33P-ATP by filter binding assay relative to control
compound,measurement,setting,value
Cc1cccc(-c2nc(N)sc2-c2ccc3ncccc3n2)c1,Activity,[1],125%
same,IC50,[2],0.2 nM
same,Activity,[3],97%
same,Activity,[4],108%
same,Activity,[5],113%
same,Activity,[6],101%
same,inhibition,[7],91%
same,Activity,[8],100%
same,Activity,[9],118%
same,Activity,[10],104%
same,Activity,[11],104%
same,Activity,[12],89%
same,Activity,[13],101%
same,Activity,[14],97%
same,Activity,[15],123%
same,Activity,[16],90%
same,Activity,[17],115%
same,Activity,[18],115%
same,Activity,[19],106%
same,Activity,[20],119%
same,Activity,[21],111%
same,efflux ratio,[22],< 1
same,Activity,[23],96%
same,Activity,[24],121%
same,Activity,[25],112%
same,Activity,[26],115%
